Measured values reported in the NIST ThermoML archive (doi:10.1016/j.jct.2012.08.019).
± gives the expanded uncertainty stated by the source.

What was measured:
[1] = 323.2 K, Liquid, Vibrating tube method
[2] = xn = mol fraction of the nth substance listed; details: Liquid; for mass density: Vibrating tube method; for viscosity: Moving piston method

CCCCCCCCCC [decane]
[1]
Details | mass density [kg/m3]
100 kPa | 707 ± 0.3
1000 kPa | 707.9 ± 0.4
2000 kPa | 708.8 ± 0.4
3000 kPa | 709.7 ± 0.4
4000 kPa | 710.6 ± 0.4
5000 kPa | 711.5 ± 0.4
6000 kPa | 712.4 ± 0.4
7000 kPa | 713.3 ± 0.4
8000 kPa | 714.1 ± 0.4
9000 kPa | 715 ± 0.4
10000 kPa | 715.9 ± 0.4

CCCCCCCCCC [decane] + CCCCCCCCCCCCCC
[2], 323.2 K, x1 = 1
Details | mass density [kg/m3]
100 kPa | 707 ± 0.3
1000 kPa | 707.9 ± 0.4
2000 kPa | 708.8 ± 0.4
3000 kPa | 709.7 ± 0.4
4000 kPa | 710.6 ± 0.4
5000 kPa | 711.5 ± 0.4
6000 kPa | 712.4 ± 0.4
7000 kPa | 713.3 ± 0.4
8000 kPa | 714.1 ± 0.4
9000 kPa | 715 ± 0.4
10000 kPa | 715.9 ± 0.4

CCCCCCCCCC [decane] + O=C=O
[2]
Details | mass density, 323.3 K [kg/m3] | viscosity, 323.2 K [mPa·s]
1020 kPa, x2 = 0.094 | 711 ± 2 | 0.56 ± 0.1
2080 kPa, x2 = 0.19 | 716 ± 2 | 0.46 ± 0.1
2970 kPa, x2 = 0.263 | 720 ± 2 | 0.42 ± 0.1
3940 kPa, x2 = 0.353 | 724 ± 2 | 0.38 ± 0.1
4910 kPa, x2 = 0.429 | 729 ± 2 | 0.33 ± 0.1
5960 kPa, x2 = 0.513 | 735 ± 2 | 0.28 ± 0.1

CCCCCCCCCCCCCC [tetradecane]
[1]
Details | mass density [kg/m3]
100 kPa | 741.3 ± 0.4
1000 kPa | 742.1 ± 0.4
2000 kPa | 742.9 ± 0.4
3000 kPa | 743.7 ± 0.4
4000 kPa | 744.4 ± 0.4
5000 kPa | 745.2 ± 0.4
6000 kPa | 746 ± 0.4
7000 kPa | 746.7 ± 0.4
8000 kPa | 747.5 ± 0.4
9000 kPa | 748.2 ± 0.4
10000 kPa | 749 ± 0.4

CCCCCCCCCCCCCC [tetradecane] + CCCCCCCCCC
mass density [kg/m3], [2], 323.2 K
Details | x2 = 0 | x2 = 0.25 | x2 = 0.5 | x2 = 0.75
100 kPa | 741.3 ± 0.4 | 734.3 ± 0.4 | 726.5 ± 0.4 | 717.2 ± 0.4
1000 kPa | 742.1 ± 0.4 | 735.1 ± 0.4 | 727.4 ± 0.4 | 718.1 ± 0.4
2000 kPa | 742.9 ± 0.4 | 735.9 ± 0.4 | 728.2 ± 0.4 | 719 ± 0.4
3000 kPa | 743.7 ± 0.4 | 736.7 ± 0.4 | 729.1 ± 0.4 | 719.8 ± 0.4
4000 kPa | 744.4 ± 0.4 | 737.5 ± 0.4 | 729.8 ± 0.4 | 720.7 ± 0.4
5000 kPa | 745.2 ± 0.4 | 738.3 ± 0.4 | 730.7 ± 0.4 | 721.6 ± 0.4
6000 kPa | 746 ± 0.4 | 739.1 ± 0.4 | 731.5 ± 0.4 | 722.5 ± 0.4
7000 kPa | 746.7 ± 0.4 | 739.9 ± 0.4 | 732.4 ± 0.4 | 723.2 ± 0.4
8000 kPa | 747.5 ± 0.4 | 740.7 ± 0.4 | 733.2 ± 0.4 | 724 ± 0.4
9000 kPa | 748.2 ± 0.4 | 741.5 ± 0.4 | 734 ± 0.4 | 724.9 ± 0.4
10000 kPa | 749 ± 0.4 | 742.2 ± 0.4 | 734.8 ± 0.4 | 725.8 ± 0.4

CCCCCCCCCCCCCC [tetradecane] + O=C=O
[2]
Details | mass density, 323.3 K [kg/m3] | viscosity, 323.2 K [mPa·s]
980 kPa, x2 = 0.097 | 744 ± 2 | 1.18 ± 0.1
2060 kPa, x2 = 0.196 | 748 ± 2 | 1.08 ± 0.1
3000 kPa, x2 = 0.279 | 751 ± 2 | 0.96 ± 0.1
4030 kPa, x2 = 0.358 | 755 ± 2 | 0.79 ± 0.1
4960 kPa, x2 = 0.429 | 758 ± 2 | 0.67 ± 0.1
6000 kPa, x2 = 0.496 | 762 ± 2 | 0.56 ± 0.1
